Counter-ions that a name gives are not always drawn. Like-named read-outs stand apart in the source and are kept apart here.
Key:
[1] = molecular target: human dopamine transporter (Homo sapiens (Human), UniProt Q01959); assay: Dopamine functional uptake assay, recombinant human transporter in CHO-K1 or HEK293 cells; type: cell-based; conditions: read-out: hDAT IC50
[2] = molecular target: human serotonin transporter (Homo sapiens (Human), UniProt P31645); assay: Serotonin functional uptake assay, recombinant human transporter in HEK-293 cells; type: cell-based
Chain of human serotonin transporter (P31645 whole entry): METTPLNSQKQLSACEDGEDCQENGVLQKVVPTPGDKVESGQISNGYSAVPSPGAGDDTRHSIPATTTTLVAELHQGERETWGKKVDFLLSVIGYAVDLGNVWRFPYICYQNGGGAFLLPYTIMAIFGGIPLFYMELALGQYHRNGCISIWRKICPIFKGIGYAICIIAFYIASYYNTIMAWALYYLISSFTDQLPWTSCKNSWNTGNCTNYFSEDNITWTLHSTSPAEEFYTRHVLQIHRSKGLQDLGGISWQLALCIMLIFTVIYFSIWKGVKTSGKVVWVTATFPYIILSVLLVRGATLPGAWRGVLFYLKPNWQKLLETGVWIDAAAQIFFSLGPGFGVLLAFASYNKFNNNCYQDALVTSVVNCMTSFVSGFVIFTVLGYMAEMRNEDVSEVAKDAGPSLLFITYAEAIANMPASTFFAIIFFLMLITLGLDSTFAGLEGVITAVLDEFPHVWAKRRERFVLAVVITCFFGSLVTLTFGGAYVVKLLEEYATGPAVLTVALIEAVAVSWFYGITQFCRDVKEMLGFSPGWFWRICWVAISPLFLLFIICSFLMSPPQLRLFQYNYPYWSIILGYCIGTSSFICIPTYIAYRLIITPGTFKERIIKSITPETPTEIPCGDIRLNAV

[3] = molecular target: DA Transporter (DAT) sites in mouse brain (Mus musculus (Mouse), UniProt Q61327); assay: Ex vivo [3H] WIN 35428 binding to DAT sites in mouse brain after oral dosing; conditions: mice, 60 min after treatment
[4] = molecular target: 5-HT Transporter (SERT) sites in mouse brain (Mus musculus (Mouse), UniProt Q60857); assay: Ex vivo [3H] citalopram binding to SERT sites in mouse brain after oral dosing; conditions: mice, 60 min after treatment
[5] = Human serotonin transporter uptake, read-out: hSERT IC50

Chain of human dopamine transporter (Q01959 whole entry): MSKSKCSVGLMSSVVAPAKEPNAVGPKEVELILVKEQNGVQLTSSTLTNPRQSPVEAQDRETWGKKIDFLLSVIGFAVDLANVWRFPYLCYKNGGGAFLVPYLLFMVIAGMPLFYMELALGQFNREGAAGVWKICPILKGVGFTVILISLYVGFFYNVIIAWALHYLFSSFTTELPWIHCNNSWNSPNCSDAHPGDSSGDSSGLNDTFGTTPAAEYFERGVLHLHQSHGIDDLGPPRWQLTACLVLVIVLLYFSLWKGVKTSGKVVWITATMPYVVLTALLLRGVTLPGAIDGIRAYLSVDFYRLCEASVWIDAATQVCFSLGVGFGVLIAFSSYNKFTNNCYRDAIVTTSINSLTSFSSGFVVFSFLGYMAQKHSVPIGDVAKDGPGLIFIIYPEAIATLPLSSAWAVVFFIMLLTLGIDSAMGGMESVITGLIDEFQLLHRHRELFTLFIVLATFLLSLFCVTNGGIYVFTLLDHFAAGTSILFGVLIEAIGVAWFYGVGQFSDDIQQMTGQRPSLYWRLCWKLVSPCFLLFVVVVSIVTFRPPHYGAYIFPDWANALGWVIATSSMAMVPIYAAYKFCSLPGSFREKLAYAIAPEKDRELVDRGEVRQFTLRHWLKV

OC1CCCC1NCC1(c2ccc(Cl)c(Cl)c2)CCCCC1 (racemic) [Compound 116, (±) 2-((1-(3,4-dichlorophenyl)cyclohexyl)methylamino)cyclopentanol]
IC50 [1]: 3 nM | IC50 [2, 5]: 2060 nM

C[C@@H]1CCCC[C@@]1(CN)c1ccc(Cl)c(Cl)c1 (racemic) [Compound 174, (±)-cis-(1-(3,4-dichlorophenyl)-2-methylcyclohexyl)methanamine hydrochloride]
IC50 [1]: 2780 nM | IC50 [2, 5]: 246 nM

C[C@@H]1CCCC[C@@]1(CN(C)C)c1ccc(Cl)c(Cl)c1 (racemic) [Compound 175, (±) cis-1-(1-(3,4-dichlorophenyl)-2-methylcyclohexyl)-N,N-dimethylmethanamine hydrochloride]
IC50 [1]: 125 nM | IC50 [2, 5]: 55 nM

CNC[C@@]1(c2ccc(Cl)c(Cl)c2)CCCC[C@H]1C (racemic) [Compound 176, (±) cis-1-(1-(3,4-dichlorophenyl)-2-methylcyclohexyl)-N-methylmethanamine]
IC50 [1]: 775 nM | IC50 [2, 5]: 533 nM

CCNC[C@@]1(c2ccc(Cl)c(Cl)c2)CCCC[C@H]1C (racemic) [Compound 177, (±) cis-N-((1-(3,4-dichlorophenyl)-2-methylcyclohexyl)methyl)ethanamine]
IC50 [1]: 322 nM | IC50 [2, 5]: 3220 nM

CNC(=O)[C@@]1(c2ccc3ccccc3c2)CCCC[C@H]1O (relative stereo) [Compound 300, cis-2-hydroxy-N-methyl-1-(naphthalen-2-yl)cyclohexanecarboxamide]
IC50 [1]: 1730 nM | IC50 [2, 5]: > 10000 nM

CNC(C)C1(c2ccc3ccccc3c2)CCCCC1 (single isomer, unassigned) [58 E1, N-methyl-1-(1-(naphthalen-2-yl)cyclohexyl)ethanamine]
DAT Mean Specific Binding ± S.E.M. ([3]; 1 mg/kg PO): 15732 ± 1360 dpm | DAT Mean Specific Binding ± S.E.M. ([3]; 3 mg/kg PO): 14938 ± 2613 dpm | DAT Mean Specific Binding ± S.E.M. ([3]; 10 mg/kg PO): 17215 ± 2151 dpm | DAT Mean Specific Binding ± S.E.M. ([3]; 30 mg/kg PO): 12876 ± 2152 dpm | receptor occupancy at 1 mg/kg ([3]; mouse, 1 mg/kg PO): 7% | receptor occupancy at 3 mg/kg ([3]; mouse, 3 mg/kg PO): 11% | receptor occupancy at 10 mg/kg ([3]; mouse, 10 mg/kg PO): -2% | receptor occupancy at 30 mg/kg ([3]; mouse, 30 mg/kg PO): 24% | SERT Mean Specific Binding ± S.E.M. ([4]; 1 mg/kg PO): 3245 ± 107 dpm | SERT Mean Specific Binding ± S.E.M. ([4]; 3 mg/kg PO): 3021 ± 182 dpm | SERT Mean Specific Binding ± S.E.M. ([4]; 10 mg/kg PO): 1799 ± 115 dpm | SERT Mean Specific Binding ± S.E.M. ([4]; 30 mg/kg PO): 469 ± 43 dpm | receptor occupancy at 1 mg/kg ([4]; mouse, 1 mg/kg PO): 5% | receptor occupancy at 3 mg/kg ([4]; mouse, 3 mg/kg PO): 11% | receptor occupancy at 10 mg/kg ([4]; mouse, 10 mg/kg PO): 47% | receptor occupancy at 30 mg/kg ([4]; mouse, 30 mg/kg PO): 86%

CNC[C@]1(c2ccc(Cl)cc2)CCCC[C@H]1O (single isomer, unassigned) [136 E1, trans-2-(4-chlorophenyl)-2-((methylamino)methyl)-cyclohexanol]
IC50 [1]: 2870 nM

CNC[C@]1(c2ccc(Cl)cc2)CCCC[C@H]1O (single isomer, unassigned) [136 E2, trans-2-(4-chlorophenyl)-2-((methylamino)methyl)-cyclohexanol]
IC50 [1]: 3370 nM

CNC[C@]1(c2cccc(Cl)c2)CCCC[C@H]1O (single isomer, unassigned) [138 E1, trans-2-(3-chlorophenyl)-2-((methylamino)methyl)cyclohexanol]
IC50 [1]: 918 nM | IC50 ([2]; hSERT IC50): > 10000 nM

CNC[C@]1(c2cccc(Cl)c2)CCCC[C@H]1O (single isomer, unassigned) [138 E2, trans-2-(3-chlorophenyl)-2-((methylamino)methyl)cyclohexanol]
IC50 [1]: 2540 nM | IC50 [2, 5]: 7000 nM

CNC[C@]1(c2ccc(OC)cc2)CCCC[C@H]1O (single isomer, unassigned) [140 E1, (±) trans-2-(4-Methoxyphenyl)-2-((methylamino)methyl)cyclohexanol]
IC50 [1]: 8820 nM | IC50 [2, 5]: 2690 nM

CNC[C@]1(c2ccc(OC)cc2)CCCC[C@H]1O (single isomer, unassigned) [140 E2, (±) trans-2-(4-Methoxyphenyl)-2-((methylamino)methyl)cyclohexanol]
IC50 [1]: 5670 nM

CNC[C@@]1(c2ccc(C(F)(F)F)cc2)CCCC[C@H]1O (single isomer, unassigned) [143 E2, cis-2-((methylamino)methyl)-2-(4-(trifluoromethyl)phenyl)cyclohexanol]
IC50 [2, 5]: 7170 nM

CNC[C@]1(c2ccc(C(F)(F)F)cc2)CCCC[C@H]1O (single isomer, unassigned) [144 E1, trans-2-((Methylamino)methyl)-2-(4-(trifluoromethyl)phenyl) cyclohexanol]
IC50 [2, 5]: 5630 nM

CNC[C@@]1(c2ccc(OC(F)(F)F)cc2)CCCC[C@H]1O (single isomer, unassigned) [145 E1, cis-2-((Methylamino)methyl)-2-(4-(trifluoromethoxy)phenyl) cyclohexanol]
IC50 [1]: 4730 nM | IC50 [2, 5]: 75 nM

CNC[C@@]1(c2ccc(OC(F)(F)F)cc2)CCCC[C@H]1O (single isomer, unassigned) [145 E2, cis-2-((Methylamino)methyl)-2-(4-(trifluoromethoxy)phenyl) cyclohexanol]
IC50 [1]: 6520 nM | IC50 [2, 5]: 220 nM

CNC[C@]1(c2ccc(OC(F)(F)F)cc2)CCCC[C@H]1O (single isomer, unassigned) [146 E1, trans-2-((Methylamino)methyl)-2-(4-(trifluoromethoxy)phenyl) cyclohexanol]
IC50 [2, 5]: 4540 nM

CNC[C@]1(c2ccc(OC(F)(F)F)cc2)CCCC[C@H]1O (single isomer, unassigned) [146 E2, trans-2-((Methylamino)methyl)-2-(4-(trifluoromethoxy)phenyl) cyclohexanol]
IC50 [2, 5]: 2280 nM

CN(C)C[C@@]1(c2ccc(Cl)c(Cl)c2)CCCC[C@H]1O (single isomer, unassigned) [152 E1, cis-2-(3,4-dichlorophenyl)-2-((dimethylamino)methyl)cyclohexanol]
IC50 [1]: […] | IC50 [2, 5]: 405 nM

CN(C)C[C@@]1(c2ccc(Cl)c(Cl)c2)CCCC[C@H]1O (single isomer, unassigned) [152 E2, cis-2-(3,4-dichlorophenyl)-2-((dimethylamino)methyl)cyclohexanol]
IC50 [1]: […] | IC50 [2, 5]: 77 nM

CN(C)C[C@]1(c2ccc(Cl)c(Cl)c2)CCCC[C@H]1O (single isomer, unassigned) [153 E1, trans-2-(3,4-dichlorophenyl)-2-((dimethylamino)methyl)cyclohexanol]
IC50 [1]: […] | IC50 [2, 5]: 17 nM

CN(C)C[C@]1(c2ccc(Cl)cc2)CCCC[C@H]1O (single isomer, unassigned) [154 E1, trans-2-(4-chlorophenyl)-2-((dimethylamino)methyl)cyclohexanol]
IC50 [1]: 795 nM | IC50 [2, 5]: 2170 nM

CN(C)C[C@]1(c2ccc(Cl)cc2)CCCC[C@H]1O (single isomer, unassigned) [154 E2, trans-2-(4-chlorophenyl)-2-((dimethylamino)methyl)cyclohexanol]
IC50 [1]: 888 nM | IC50 [2, 5]: 439 nM

COc1ccc([C@]2(CN(C)C)CCCC[C@H]2O)cc1 (single isomer, unassigned) [155 E1, Cis-2-((dimethylamino)methyl)-2-(4-methoxyphenyl)cyclohexanol]
IC50 [2, 5]: 2990 nM

COc1ccc([C@]2(CN(C)C)CCCC[C@H]2O)cc1 (single isomer, unassigned) [155 E2, Cis-2-((dimethylamino)methyl)-2-(4-methoxyphenyl)cyclohexanol]
IC50 [2, 5]: 6280 nM

COc1ccc([C@@]2(CN(C)C)CCCC[C@H]2O)cc1 (single isomer, unassigned) [156 E1, trans-2-((dimethylamino)methyl)-2-(4-methoxyphenyl)cyclohexanol]
IC50 [1]: 1310 nM | IC50 [2, 5]: 76 nM

NC[C@]1(c2ccc(Cl)c(Cl)c2)CCC[C@H](O)C1 (single isomer, unassigned) [184 E1, Cis-3-(aminomethyl)-3-(3,4-dichlorophenyl)cyclohexanol]
IC50 [1]: 213 nM

NC[C@]1(c2ccc(Cl)c(Cl)c2)CCC[C@H](O)C1 (single isomer, unassigned) [184 E2, Cis-3-(aminomethyl)-3-(3,4-dichlorophenyl)cyclohexanol]
IC50 [1]: 789 nM

NC[C@@]1(c2ccc(Cl)c(Cl)c2)CCC[C@H](O)C1 (single isomer, unassigned) [185 E1, Trans-3-(aminomethyl)-3-(3,4-dichlorophenyl)cyclohexanol]
IC50 [1]: 421 nM

NC[C@@]1(c2ccc(Cl)c(Cl)c2)CCC[C@H](O)C1 (single isomer, unassigned) [185 E2, Trans-3-(aminomethyl)-3-(3,4-dichlorophenyl)cyclohexanol]
IC50 [1]: 121 nM

CN(C)C[C@]1(c2ccc(Cl)c(Cl)c2)CCC[C@H](O)C1 (single isomer, unassigned) [190 E1, Cis-3-(3,4-dichlorophenyl)-3-((dimethylamino)methyl)cyclohexanol]
IC50 [1]: 24 nM

CN(C)C[C@@]1(c2ccc(Cl)c(Cl)c2)CCC[C@H](O)C1 (single isomer, unassigned) [191 E2, Trans-3-(3,4-dichlorophenyl)-3-((dimethylamino)methyl)cyclohexanol]
IC50 [1]: 2 nM

CC1(O)CCC(CN)(c2ccc(Cl)c(Cl)c2)CC1 (centres unmarked) [Compound 272, 4-(aminomethyl)-4-(3,4-dichlorophenyl)-1-methylcyclohexanol]
IC50 [1]: 2600 nM

CC1(O)CCC(CN)(c2ccc(Cl)c(Cl)c2)CC1 (centres unmarked) [Compound 275, 4-(aminomethyl)-4-(3,4-dichlorophenyl)-1-methylcyclohexanol]
IC50 [1]: 518 nM

NC[C@]1(c2ccc(Cl)c(Cl)c2)CC[C@H](O)CC1 [Compound 299, (1s,4s)-4-(aminomethyl)-4-(3,4-dichlorophenyl)cyclohexanol]
IC50 [2, 5]: 3870 nM

Source: patent US10562878B2, “Cycloalkylamines as monoamine reuptake inhibitors” (Sunovion Pharmaceuticals Inc., priority 2006, dated 2020)
